Experimental findings from paper PMC5117899 (Cell chemical biology, 2016) are described below.

This assay deals with T1, AcnA (Staphylococcus aureus, UniProt Q2FYS9).
T1 sequence (Q2FYS9 1-901): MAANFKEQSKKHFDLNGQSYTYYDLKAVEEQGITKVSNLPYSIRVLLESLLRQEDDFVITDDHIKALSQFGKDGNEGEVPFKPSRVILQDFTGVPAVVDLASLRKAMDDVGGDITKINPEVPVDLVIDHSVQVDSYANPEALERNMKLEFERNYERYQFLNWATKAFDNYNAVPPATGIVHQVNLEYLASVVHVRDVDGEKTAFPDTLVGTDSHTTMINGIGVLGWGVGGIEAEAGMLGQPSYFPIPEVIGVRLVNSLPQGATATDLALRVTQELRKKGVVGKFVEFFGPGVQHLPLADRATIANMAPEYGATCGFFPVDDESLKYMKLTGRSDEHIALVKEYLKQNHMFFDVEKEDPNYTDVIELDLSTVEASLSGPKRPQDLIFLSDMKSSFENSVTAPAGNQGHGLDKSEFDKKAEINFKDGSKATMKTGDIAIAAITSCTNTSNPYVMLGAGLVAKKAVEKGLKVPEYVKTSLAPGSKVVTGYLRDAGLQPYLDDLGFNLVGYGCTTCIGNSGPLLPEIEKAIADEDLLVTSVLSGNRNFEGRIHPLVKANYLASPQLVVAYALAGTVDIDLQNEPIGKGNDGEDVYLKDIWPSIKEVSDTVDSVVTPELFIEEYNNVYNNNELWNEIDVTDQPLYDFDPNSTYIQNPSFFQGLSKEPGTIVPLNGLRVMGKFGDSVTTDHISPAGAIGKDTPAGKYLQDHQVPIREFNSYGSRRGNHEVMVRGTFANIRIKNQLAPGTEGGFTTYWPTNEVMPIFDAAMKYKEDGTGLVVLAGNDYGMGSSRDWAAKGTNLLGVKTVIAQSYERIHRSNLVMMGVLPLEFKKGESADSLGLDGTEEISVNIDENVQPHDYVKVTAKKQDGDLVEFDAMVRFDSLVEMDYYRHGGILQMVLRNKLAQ
Nature of the assay: spectrophotometric, cis-aconitate formation at […] nm. It is filed as biochemical. The conditions noted are these: Fe-S cluster reconstituted in vitro.

`O=C(O)C[C@H](C(=O)O)[C@@H](O)C(=O)O` [isocitrate]: the “spectrophotometric, cis-aconitate formation at 240 nm” value is given as “purified AcnA was determined by monitoring the conversion of isocitrate to cis-aconitate spectrophotometrically”.
